The numbers were not newly measured in patent publication US20190231770A1, “COMBINATION COMPOSITIONS COMPRISING FXR AGONISTS FOR TREATING OR PREVENTING A FIBROTIC, CIRRHOTIC DISEASE OR DISORDER” (Novartis AG, priority 2016, published 2019), which cites them from elsewhere.

Molecules are shown by their SMILES.

The conditions of data set [1]: long term administration.
The conditions of data set [2]: pre-clinical models of NASH and cold ischemia and reperfusion injury; clinical trials in NASH/NAFLD, portal hypertension and cirrhosis.
For data set [3] the following is noted: patients with chronic liver diseases.
Data set [4] relates to caspases 1, 2, 3, 6, 7, 8 and 9.

For the compound `CC[C@H]1[C@@H](O)[C@@H]2[C@H](CC[C@]3(C)[C@@H]([C@H](C)CCC(=O)O)CC[C@@H]23)[C@@]2(C)CC[C@@H](O)C[C@@H]12` [obeticholic acid, Obeticholic acid], in data set [1], the LDL cholesterol result is reported as “increased LDL cholesterol” and the pruritus entry is “associated with pruritus”.

Consider `C[C@H](NC(=O)C(=O)Nc1ccccc1C(C)(C)C)C(=O)N[C@@H](CC(=O)O)C(=O)COc1c(F)c(F)cc(F)c1F` [emricasan, 3-[2-[(2-tert-butyl-phenylaminooxalyl)-amino]-propionylamino]-4-oxo-5-(2,3,5,6-tetrafluoro-phenoxy)-pentanoic acid], for which the efficacy entry in data set [2] is reported as “demonstrated efficacy”. Also, the “serum aspartate aminotransferase (AST) and alanine aminotransferase (ALT) levels” value in data set [3] was “lower”. For the same compound, in data set [4], the “inhibition of caspases 1, 2, 3, 6, 7, 8 and 9” value is reported as “inhibits”.
